Experimental data taken from the NIST ThermoML archive (doi:10.1016/j.jct.2013.04.003).
± gives the expanded uncertainty stated by the source.

Settings: 313.15 K; Liquid; Closed cell (Static) method

SMILES | vapor or sublimation pressure
CC(C)CC(C)(C)C [2,2,4-trimethylpentane] | 12.95 ± 0.031 kPa
CCCCO [butan-1-ol] | 2.483 ± 0.015 kPa
C=CCCCC [hex-1-ene] | 44.98 ± 0.2 kPa
